Data on one molecule can be found in publication PMC9032561, “Simultaneous Inhibitory Effects of All-Trans Astaxanthin on Acetylcholinesterase and Oxidative Stress” (Marine Drugs, 2022).

The test concerns the target T1, acetylcholinesterase (Electrophorus electricus, UniProt O42275).
T1 construct: gene ache
Briefly: Ellman assay with Lineweaver-Burk kinetics; supported by fluorescence quenching and circular dichroism. Type of test: biochemical. (DTNB colorimetry detects thiols as they appear.)

T1 sequence (O42275 24-633): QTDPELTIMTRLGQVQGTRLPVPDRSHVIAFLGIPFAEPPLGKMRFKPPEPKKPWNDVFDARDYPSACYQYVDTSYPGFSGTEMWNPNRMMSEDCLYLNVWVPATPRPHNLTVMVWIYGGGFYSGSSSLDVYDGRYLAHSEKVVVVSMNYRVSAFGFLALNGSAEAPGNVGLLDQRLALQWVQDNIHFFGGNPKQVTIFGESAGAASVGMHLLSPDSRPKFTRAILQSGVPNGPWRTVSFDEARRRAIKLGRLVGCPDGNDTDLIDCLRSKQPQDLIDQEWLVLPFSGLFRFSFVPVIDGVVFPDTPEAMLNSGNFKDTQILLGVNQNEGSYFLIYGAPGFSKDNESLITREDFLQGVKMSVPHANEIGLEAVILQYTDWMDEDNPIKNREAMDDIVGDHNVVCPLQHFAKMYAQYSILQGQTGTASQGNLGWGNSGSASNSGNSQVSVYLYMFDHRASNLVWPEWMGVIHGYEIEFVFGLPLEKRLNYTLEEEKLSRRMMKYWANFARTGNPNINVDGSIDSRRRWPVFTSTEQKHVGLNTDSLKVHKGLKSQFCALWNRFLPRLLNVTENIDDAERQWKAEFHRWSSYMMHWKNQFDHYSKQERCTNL

`CC1=C(/C=C/C(C)=C/C=C/C(C)=C/C=C/C=C(C)/C=C/C=C(C)/C=C/C2=C(C)C(=O)[C@@H](O)CC2(C)C)C(C)(C)C[C@H](O)C1=O` [all-trans astaxanthin]: the IC50 (usually the point on the concentration scale where inhibition reaches its midpoint) is 8.64 µM. This counts as single-digit micromolar.
